# Like-named read-outs stand apart in the source and are kept apart here.
# Columns and labels:
# [1] = molecular target: T1, Neisseria meningitides alanine aminopeptidase (NmAPN) (Neisseria meningitidis, UniProt Q9JYV4); assay type: biochemical; conditions: substrate 3 μM, enzyme 1.37 nM, pH 7.5
# T1 sequence (Q9JYV4 1-867): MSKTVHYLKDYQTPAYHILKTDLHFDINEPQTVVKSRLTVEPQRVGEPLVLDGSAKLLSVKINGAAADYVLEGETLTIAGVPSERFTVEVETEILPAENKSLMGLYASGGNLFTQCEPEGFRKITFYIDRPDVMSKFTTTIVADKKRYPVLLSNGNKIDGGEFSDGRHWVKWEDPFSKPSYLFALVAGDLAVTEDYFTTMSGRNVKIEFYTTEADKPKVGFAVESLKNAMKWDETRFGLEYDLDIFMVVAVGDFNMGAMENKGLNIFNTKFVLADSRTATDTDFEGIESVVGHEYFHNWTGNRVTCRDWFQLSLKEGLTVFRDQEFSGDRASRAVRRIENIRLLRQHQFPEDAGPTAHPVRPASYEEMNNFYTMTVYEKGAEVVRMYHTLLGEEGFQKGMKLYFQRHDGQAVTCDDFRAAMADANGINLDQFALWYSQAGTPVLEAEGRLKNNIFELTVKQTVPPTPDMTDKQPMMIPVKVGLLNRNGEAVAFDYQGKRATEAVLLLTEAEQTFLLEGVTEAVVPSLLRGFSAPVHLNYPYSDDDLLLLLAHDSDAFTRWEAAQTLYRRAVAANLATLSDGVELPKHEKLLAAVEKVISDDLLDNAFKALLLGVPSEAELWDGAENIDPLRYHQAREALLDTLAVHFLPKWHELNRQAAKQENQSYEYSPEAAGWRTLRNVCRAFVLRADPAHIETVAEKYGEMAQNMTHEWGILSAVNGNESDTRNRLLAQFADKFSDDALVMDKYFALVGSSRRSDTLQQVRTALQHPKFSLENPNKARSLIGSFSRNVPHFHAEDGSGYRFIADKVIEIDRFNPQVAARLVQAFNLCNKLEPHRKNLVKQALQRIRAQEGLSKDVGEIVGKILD
# [2] = molecular target: NmAPN (Neisseria meningitidis, UniProt Q9JYV4); test: biochemical; assay type: biochemical, Neisseria meningitides; conditions: for mode of inhibition: Lineweaver-Burk plot
# [3] = molecular target: T1, Neisseria meningitides alanine aminopeptidase (NmAPN); test: Kinetic parameters determination; assay type: biochemical; conditions: ACC substrate, 50 mM Tris-HCl pH 7.5, 37 °C, enzyme 1.13 nM
# [4] = molecular target: porcine kidney APN; conditions: cited from earlier work
# [5] = molecular target: PfAPN; conditions: Plasmodium falciparum APN; cited from earlier work
compound,measurement,setting,value
N[C@@H](Cc1ccc(OCC(=O)O)cc1)C(=O)O [4(1-carboxymethoxy)-L-Phe],hydrolysis of ACC substrate by NmAPN (in words),[1],not hydrolyzed
N=C(N)NCCCC(N)P(=O)(O)O (stereo not shown) [Compound 1],IC50,[2],1910 ± 180 nM
same,Ki,[2],1460 ± 140 nM
NC(CCc1ccccc1)P(=O)(O)O (stereo not shown) [Compound 2],IC50,[2],1660 ± 70 nM
NC(CCc1ccccc1)[PH](=O)O (stereo not shown) [Compound 3],IC50,[2],1910 ± 50 nM
NC(=O)Cc1cc(=O)oc2cc(NC(=O)[C@@H](N)Cc3ccc(Br)cc3)ccc12 [Compound 4-Br-L-Phe],Km,[3],> 250 µM
NC(CCc1ccccc1)P(=O)(O)CC(Cc1ccccc1)C(=O)O (stereo not shown) [Compound 4],IC50,[2],397 ± 24 nM
same,Ki,[2],302 ± 18 nM
same,mode of inhibition,[2],"reversible, competitive and tight-binding inhibitors"
same,Ki,[4],276 nM
NC(CCc1ccccc1)P(=O)(O)CC(Cc1ccc(O)cc1)C(=O)O (stereo not shown) [Compound 5],IC50,[2],70 ± 7 nM
same,mode of inhibition,[2],"reversible, competitive and tight-binding inhibitors"
same,Ki,[5],232 nM
same,Ki,[4],36 nM
NC(CCc1ccccc1)P(=O)(O)CNC(Cc1ccc(O)cc1)C(=O)O (stereo not shown) [Compound 6],IC50,"[2]; L-Arg-ACC 20 μM, enzyme 0.85 nM, 30 min preincubation, 37 °C",3290 ± 150 nM
same,Ki,"[2]; calculated from IC50 by Cheng-Prusoff equation, L-Arg-ACC 20 μM",2510 ± 110 nM
NCC(=O)Nc1ccc2c(CC(N)=O)cc(=O)oc2c1 [Gly],Km,[3],> 250 µM
CC[C@H](N)C(=O)Nc1ccc2c(CC(N)=O)cc(=O)oc2c1 [L-Abu],"rate of hydrolysis, proportional to kcat/Km, as percentage of the best substrate cleavage (L-hArg-ACC, 100%)",[1],20–40%
N=C(NCCC[C@H](N)C(=O)Nc1ccc2c(CC(N)=O)cc(=O)oc2c1)N[N+](=O)[O-] [L-Arg(NO2)],"rate of hydrolysis, proportional to kcat/Km, as percentage of the best substrate cleavage (L-hArg-ACC, 100%)",[1],38.5–74.0%
NC(=O)CC[C@H](N)C(=O)Nc1ccc2c(CC(N)=O)cc(=O)oc2c1 [L-Gln],Km,[3],> 250 µM
NC(=O)Cc1cc(=O)oc2cc(NC(=O)[C@@H](N)CCC(=O)OCc3ccccc3)ccc12 [L-Glu(Bzl)],"rate of hydrolysis, proportional to kcat/Km, as percentage of the best substrate cleavage (L-hArg-ACC, 100%)",[1],38.5–74.0%
NCCC(=O)O [β-Ala],hydrolysis of ACC substrate by NmAPN (in words),[1],not hydrolyzed
